Earlier results on one compound are cited in patent US6635280B2, “Extending the duration of drug release within the stomach during the fed mode” (DepoMed, Inc., priority 1997, dated 2003).

The conditions of the data set: oral doses administered with or following a meal.

In the case of `Cc1c(O)cccc1C(=O)N[C@@H](CSc1ccccc1)[C@H](O)CN1C[C@H]2CCCC[C@H]2C[C@H]1C(=O)NC(C)(C)C` [nelfinavir], the “area under the plasma concentration-time curve, increase with or following a meal” value is reported as “two-fold to three-fold” and the “peak plasma concentration, increase with or following a meal” value was “two-fold to three-fold”.
